Assay [1] concerns the target T1, AHR (Homo sapiens, UniProt P35869).
T1 construct: endogenous in cells; host or cells: HepG2 (human), DRE-luciferase reporter stably or transiently transfected
T1 sequence (P35869 11-848): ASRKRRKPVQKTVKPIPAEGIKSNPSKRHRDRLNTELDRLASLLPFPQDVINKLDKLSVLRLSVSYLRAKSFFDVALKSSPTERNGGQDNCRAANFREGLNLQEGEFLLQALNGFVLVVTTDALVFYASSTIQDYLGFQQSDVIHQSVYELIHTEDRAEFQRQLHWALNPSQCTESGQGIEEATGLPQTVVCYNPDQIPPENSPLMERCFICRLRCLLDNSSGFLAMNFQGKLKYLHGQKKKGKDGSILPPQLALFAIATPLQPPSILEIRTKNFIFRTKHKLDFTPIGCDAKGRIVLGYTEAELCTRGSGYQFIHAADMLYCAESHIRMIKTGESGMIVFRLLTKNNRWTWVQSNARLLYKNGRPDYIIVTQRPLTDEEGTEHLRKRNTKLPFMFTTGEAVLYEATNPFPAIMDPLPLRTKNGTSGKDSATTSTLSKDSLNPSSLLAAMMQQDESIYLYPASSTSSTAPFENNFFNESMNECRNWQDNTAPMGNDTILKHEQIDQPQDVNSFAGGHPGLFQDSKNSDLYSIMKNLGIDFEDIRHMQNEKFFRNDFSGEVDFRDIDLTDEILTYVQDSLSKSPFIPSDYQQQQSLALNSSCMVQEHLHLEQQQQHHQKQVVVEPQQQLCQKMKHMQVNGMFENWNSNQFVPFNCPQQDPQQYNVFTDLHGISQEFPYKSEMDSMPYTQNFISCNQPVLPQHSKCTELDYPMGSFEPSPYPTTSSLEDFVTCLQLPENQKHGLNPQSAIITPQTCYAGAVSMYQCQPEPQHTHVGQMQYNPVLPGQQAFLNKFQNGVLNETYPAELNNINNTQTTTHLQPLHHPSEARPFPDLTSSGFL
Kind of assay: DRE-Luciferase Reporter Assay, HepG2, agonist. The format is cell-based. The settings on record: HepG2 cells, agonist mode. Here is the method: (§1) AHR binds to Dioxin Responsive Elements (DRE) upstream of genes that it activates. One measure of AHR activity is activation of a reporter gene, such as luciferase, downstream of one or multiple DRE elements. Luciferase activity will reflect activation and inhibition of AHR in the cells expressing this reporter.
(§2) Murine Hepa1-6 or Hepa-1c1c7 or other murine cell line with a DRE-luciferase reporter either stably or transiently transfected are plated in media in plates (96-well, 384-well or other plates) and incubated overnight at 37 C in a CO2 incubator. Likewise, human HepG2 or other human cell line with a DRE-luciferase reporter either stably or transiently transfected are plated in media in plates (96-well, 384-well or other plates) and incubated overnight at 37 C in a CO2 incubator.
(§3) The next day, an AHR agonist compound is added. Cells are incubated for 6, 16 or 24 hours or another time point and then lysed for determination of luciferase activity as a read-out of the AHR activation. Luciferase can be measured with a commercial kit such as the Promega Luciferase kit or any kit or reagents that provide the luciferin substrate for measuring luciferase activity. The level of luciferase with only activating ligand (e.g. such as TCDD, kynurenine, ITE (2-(1H-indole-3-ylcarbonyl)-4-thiazolecarboxylic methyl ester), VAF347, BNF (beta-naphthoflavone), ICZ (6-formylindolo(3,2-b) carbazole or other AHR ligands) added is the maximum signal while the luciferase with no ligand is the minimum signal. EC50s can be determined as the concentration which activates half of the maximum luciferase activity.
A general note: A reporter such as luciferase makes a cellular process visible.

The target of assay [2] is T2, AHR (Mus musculus, UniProt P30561).
T2 construct: endogenous in cells; host or cells: Hepa1-6 / Hepa1.6 (murine hepatoma); DRE-luciferase reporter transfected in A3, no transfection in A2
T2 sequence (P30561 10-805 limits assumed): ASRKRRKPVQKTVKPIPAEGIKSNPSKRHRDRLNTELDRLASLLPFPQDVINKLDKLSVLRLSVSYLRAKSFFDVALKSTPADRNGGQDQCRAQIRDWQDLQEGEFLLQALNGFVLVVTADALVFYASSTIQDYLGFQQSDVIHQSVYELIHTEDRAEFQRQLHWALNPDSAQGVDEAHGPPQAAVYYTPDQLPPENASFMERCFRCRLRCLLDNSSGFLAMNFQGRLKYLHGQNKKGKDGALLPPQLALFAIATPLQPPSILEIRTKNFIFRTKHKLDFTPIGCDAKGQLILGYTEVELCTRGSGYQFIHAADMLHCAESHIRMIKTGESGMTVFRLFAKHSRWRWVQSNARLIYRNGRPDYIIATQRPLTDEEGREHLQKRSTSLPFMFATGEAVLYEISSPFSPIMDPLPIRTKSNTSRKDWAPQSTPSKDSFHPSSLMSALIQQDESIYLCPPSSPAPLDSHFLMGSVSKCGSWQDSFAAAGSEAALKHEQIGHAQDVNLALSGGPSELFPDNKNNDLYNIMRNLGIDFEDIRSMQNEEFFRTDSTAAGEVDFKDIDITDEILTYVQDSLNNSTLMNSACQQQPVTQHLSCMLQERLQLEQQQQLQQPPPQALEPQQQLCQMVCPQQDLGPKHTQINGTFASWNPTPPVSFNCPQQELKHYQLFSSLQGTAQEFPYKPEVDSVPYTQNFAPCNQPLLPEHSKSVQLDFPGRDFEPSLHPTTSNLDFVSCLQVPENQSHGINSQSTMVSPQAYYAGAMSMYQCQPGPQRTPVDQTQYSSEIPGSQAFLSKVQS
T2 sequence (P11499 whole entry partner): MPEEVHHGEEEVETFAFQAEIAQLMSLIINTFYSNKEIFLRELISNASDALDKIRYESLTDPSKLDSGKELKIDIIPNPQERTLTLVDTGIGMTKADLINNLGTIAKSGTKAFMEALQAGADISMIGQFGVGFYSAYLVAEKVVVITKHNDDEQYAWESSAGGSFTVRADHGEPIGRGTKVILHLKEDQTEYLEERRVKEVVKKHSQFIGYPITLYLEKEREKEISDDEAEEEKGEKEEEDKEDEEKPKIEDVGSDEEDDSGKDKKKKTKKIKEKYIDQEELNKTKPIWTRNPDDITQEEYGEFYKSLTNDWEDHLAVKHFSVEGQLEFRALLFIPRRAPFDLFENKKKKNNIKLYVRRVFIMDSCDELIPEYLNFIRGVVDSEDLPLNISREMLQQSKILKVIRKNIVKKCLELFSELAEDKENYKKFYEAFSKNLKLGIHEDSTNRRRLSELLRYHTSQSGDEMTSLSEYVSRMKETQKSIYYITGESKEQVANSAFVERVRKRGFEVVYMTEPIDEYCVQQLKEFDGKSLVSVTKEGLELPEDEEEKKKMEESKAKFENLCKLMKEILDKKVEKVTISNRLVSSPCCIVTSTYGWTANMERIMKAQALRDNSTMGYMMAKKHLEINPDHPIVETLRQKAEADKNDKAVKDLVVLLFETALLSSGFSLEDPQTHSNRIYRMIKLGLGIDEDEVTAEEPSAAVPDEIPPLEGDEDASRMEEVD
T2 sequence (O08915 whole entry partner): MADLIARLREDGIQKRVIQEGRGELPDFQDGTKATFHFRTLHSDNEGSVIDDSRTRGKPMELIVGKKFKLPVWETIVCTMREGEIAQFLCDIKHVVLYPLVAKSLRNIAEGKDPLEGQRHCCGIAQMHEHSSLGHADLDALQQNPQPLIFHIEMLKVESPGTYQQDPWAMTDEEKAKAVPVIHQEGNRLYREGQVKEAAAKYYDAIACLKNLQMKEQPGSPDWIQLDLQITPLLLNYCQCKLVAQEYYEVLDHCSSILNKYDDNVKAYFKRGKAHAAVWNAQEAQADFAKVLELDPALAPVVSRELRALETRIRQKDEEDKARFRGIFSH
Kind of assay: P450 CYP1A1 Luciferase Assay, Hepa1.6, agonist. In kind it is cell-based, murine. The following applies: Hepa1.6 cells, CYP1A1 enzyme activity read-out, agonist mode; Table 2. As for the experimental part:
AHR binds to Dioxin Responsive Elements (DRE) upstream of genes that it activates. One measure of AHR activity is P450 CYP1A1 protein levels determined by measuring CYP1A1 enzyme activity using a luminogenic CYP1A1 luciferin-based substrate. Luciferase activity will reflect CYP1A1 activity resulting from activation of AHR in the cells.
Murine Hepa1-6 or Hepa-1c1c7 or other murine cell line, human HepG2 or other human cell line are plated in media (96-well, 384-well or other plates) and incubated overnight at 37 C in a CO2 incubator.
as §3, with “lysed and incubated with a CYP1A1 luciferase-based substrate (e.g., Luciferin-CEE)” for “lysed”, “3, 6, or 12 hours of another time point. Determination” for “determination”, “CYP1A1 enzyme activity” for “the AHR activation. Luciferase”, “P450 Glo CYP1A1 detection reagent” for “Luciferase kit”, “provide” for “provide the luciferin substrate”, “(e.g.,” for “(e.g.”

For assay [3], the target named is T2, AHR. Kind of assay: DRE-Luciferase Reporter Assay, Hepa1.6, agonist. The format is cell-based, murine. The settings on record: Hepa1.6 cells, agonist mode. As for the experimental part:
as §1, §2, §3

The mark [4] stands for this setting: Table 2, read-out: DRE-Luc HepG2 - Agonist: Average EC50.
[5] abbreviates: Table 3, read-out: DRE-Luc HepG2 - Agonist: Average EC50.
[6] abbreviates: DRE-Luc Hepa1.6 - Agonist: Average EC50 (μM), Table 3.
The mark [7] stands for this setting: Table 3, read-out: DRE-Luc Hepa1.6 - Agonist: Average EC50.

Read-outs that look alike come from different tables or passages of the source.

A word on the EC50: it is the concentration that produces a half-maximal response. In the case of `Cc1sc(C(=O)c2c[nH]c3ccccc23)nc1C(=O)OC1CC[N+](C)(C)CC1` [Compound I-10], the EC50 was 100 to 1000 nM at AHR [1] (setting [4]) and greater than 1000 nM at AHR [2].
Taken in the same sequence, the figures for `C[N+](C)(C)CCCN1CCC(c2csc(C(=O)c3c[nH]c4ccccc34)n2)CC1` [Compound I-20] were greater than 1000 nM and greater than 1000 nM.
For the molecule `O=C(c1nc([C@H]2CC[C@H](C(=O)O)CC2)cs1)c1c[nH]c2ccccc12` [Compound I-4], the EC50 at AHR [1] (setting [4]) is 100 to 1000 nM; at AHR [2], greater than 1000 nM.
Taken in the same sequence, the figures for `CN1CCC(c2csc(C(=O)c3c[nH]c4ccccc34)n2)CC1` [Compound I-7] were 100 to 1000 nM and greater than 1000 nM.
For `COC(=O)c1nc(C(=O)c2c[nH]c3ccccc23)sc1Cl` [Compound I-55], the values for the EC50 at AHR [1] (setting [5]) and on AHR [3] (setting [6]) were less than 10 nM and 0.01 to 0.1 µM, respectively.
Take `CC(C)c1csc(C(=O)c2c[nH]c3cc(C(=O)OCCOCCO)ccc23)n1` [Compound I-94]: the EC50 was greater than 1000 nM at AHR [1] (setting [5]) and greater than 1 µM at AHR [3] (setting [7]).
As for `N#Cc1nc(C(=O)c2c[nH]c3ccccc23)sc1N` [Compound I-50], the EC50 is less than 10 nM at AHR [1] (setting [5]) and less than 0.01 µM at AHR [3] (setting [6]).
The like results for `COC(=O)c1ccc2c(C(=O)c3nc(C(C)C)cs3)c[nH]c2c1` [Compound I-58] were, in that order, 10 to 100 nM and 0.01 to 0.1 µM.
As to `O=C(c1nc([C@H]2CC[C@@H](O)CC2)cs1)c1c[nH]c2ccccc12` [Compound I-47], the EC50 at AHR [1] (setting [4]) and on AHR [2] was greater than 1000 nM each time.
In the case of `C[N+](C)(C)CCC(=O)N1CCC(c2csc(C(=O)c3c[nH]c4ccccc34)n2)CC1` [Compound I-23], the concentration giving a half-maximal response (EC50) at AHR [1] (setting [4]) and on AHR [2] was greater than 1000 nM throughout.
On to `O=C(O)CCC(=O)N1CCC(c2csc(C(=O)c3c[nH]c4ccccc34)n2)CC1` [Compound I-18], for which the concentration giving a half-maximal response (EC50) on AHR [1] (setting [4]) and at AHR [2] was greater than 1000 nM in each case.
For `O=C(c1nc([C@H]2CC[C@@H](C(=O)O)CC2)cs1)c1c[nH]c2ccccc12` [Compound I-9], the EC50 at AHR [1] (setting [4]) was 100 to 1000 nM; at AHR [2] it was greater than 1000 nM.
Taken in the same sequence, the figures for `O=C(O)CCCN1CCC(c2csc(C(=O)c3c[nH]c4ccccc34)n2)CC1` [Compound I-5] were 100 to 1000 nM and greater than 1000 nM.
In the case of `COc1ccc2c(C(=O)c3nc(C(C)C)cs3)c[nH]c2c1` [Compound I-2], the EC50 on AHR [1] (setting [4]) was less than 10 nM; on AHR [2], greater than 1000 nM.
As to `COC(=O)c1nc(C(=O)c2c[nH]c3ccccc23)sc1Nc1ccccc1` [Compound I-91], the EC50 was greater than 1000 nM on AHR [1] (setting [5]) and greater than 1 µM on AHR [3] (setting [7]).
As for `CCc1csc(C(=O)c2c[nH]c3ccccc23)n1` [Compound I-57], the EC50 at AHR [1] (setting [5]) is less than 10 nM; at AHR [3] (setting [6]), less than 0.01 µM.
On to `CC(C)c1csc(C(=O)c2c[nH]c3ccc(S(=O)(=O)O)cc23)n1` [Compound I-19], for which the EC50 on AHR [1] (setting [4]) and at AHR [2] was greater than 1000 nM throughout.
As to `CC(C)c1csc(C(=O)c2c[nH]c3ccccc23)n1` [Compound P-2], the EC50 is less than 10 nM on AHR [1] (setting [4]) and greater than 1000 nM at AHR [2].
For `CC(C)c1csc(C(=O)c2c[nH]c3c(C(=O)O)cccc23)n1` [Compound I-89], the EC50 on AHR [1] (setting [5]) was greater than 1000 nM; at AHR [3] (setting [7]), greater than 1 µM.
Take `CC(C)(C)c1csc(C(=O)c2c[nH]c3ccccc23)n1` [Compound I-61]: the figures for the EC50 on AHR [1] (setting [5]) and on AHR [3] (setting [6]) were less than 10 nM and less than 0.01 µM, respectively.
With `COC(=O)c1nc(C(=O)c2c[nH]c3ccccc23)sc1N(C)C` [Compound I-95], the EC50 at AHR [1] (setting [5]) was 10 to 100 nM; on AHR [3] (setting [7]), greater than 1 µM.
In the case of `COC(=O)c1nc(C(=O)c2c[nH]c3ccccc23)sc1N` [Compound I-56], the EC50 was less than 10 nM at AHR [1] (setting [5]) and less than 0.01 µM on AHR [3] (setting [6]).
Consider `COC(=O)c1csc(C(=O)c2c[nH]c3cccc(N)c23)n1` [Compound I-93], for which the EC50 at AHR [1] (setting [5]) was 100 to 1000 nM; at AHR [3] (setting [6]) it was 0.01 to 0.1 µM.
`Nc1sc(C(=O)c2c[nH]c3ccccc23)nc1C(F)(F)F` [Compound I-51]: the EC50 was less than 10 nM on AHR [1] (setting [5]) and less than 0.01 µM at AHR [3] (setting [6]).
With `O=C(c1nc(C(F)(F)F)cs1)c1c[nH]c2ccccc12` [Compound I-92], the 50% effective concentration (EC50) at AHR [1] (setting [5]) was less than 10 nM; at AHR [3] (setting [6]), less than 0.01 µM.
As for `CNC(=O)c1csc(C(=O)c2c[nH]c3ccccc23)n1` [Compound P-3], the 50% effective concentration (EC50) on AHR [2] is greater than 1000 nM.
As to `C[N+]1(C)CCC(c2csc(C(=O)c3c[nH]c4ccccc34)n2)CC1` [Compound I-8], the EC50 at AHR [1] (setting [4]) was 100 to 1000 nM; on AHR [2] it was greater than 1000 nM.
Taken in the same sequence, the figures for `Cc1sc(C(=O)c2c[nH]c3ccccc23)nc1C(=O)OC(C)C` [Compound I-11] were 100 to 1000 nM and greater than 1000 nM.
The like results for `COC(=O)c1csc(C(=O)c2c[nH]c3ccccc23)n1` [Compound P-4] were, in that order, 10 to 100 nM and greater than 1000 nM.
With `COC(=O)c1ccc2c(C(=O)c3nc(C(=O)OC)c(N)s3)c[nH]c2c1` [Compound I-96], the concentration giving a half-maximal response (EC50) at AHR [1] (setting [5]) was less than 10 nM; at AHR [3] (setting [6]), less than 0.01 µM.
For the molecule `COC(=O)c1nc(C(=O)c2c[nH]c3ccccc23)sc1Br` [Compound I-53], the EC50 is less than 10 nM at AHR [1] (setting [5]) and 0.01 to 0.1 µM at AHR [3] (setting [6]).
On to `COc1ccc2c(C(=O)c3nc(C(C)(C)C)cs3)c[nH]c2c1` [Compound I-60], for which the EC50 at AHR [1] (setting [5]) was less than 10 nM; at AHR [3] (setting [6]), less than 0.01 µM.
The like results for `CC(C)c1csc(C(=O)c2c[nH]c3cc(C(=O)O)ccc23)n1` [Compound I-62] were, in that order, greater than 1000 nM and greater than 1 µM.
In the case of `O=C(c1nc([C@H]2CC[C@H](O)CC2)cs1)c1c[nH]c2ccccc12` [Compound I-52], the EC50 at AHR [1] (setting [5]) was 10 to 100 nM; at AHR [3] (setting [7]) it was greater than 1 µM.
Turning to `N#Cc1nc(C(=O)c2c[nH]c3ccccc23)sc1Br` [Compound I-97], the figures for the EC50 at AHR [1] (setting [5]) and on AHR [3] (setting [7]) were 100 to 1000 nM and greater than 1 µM, respectively.
`CNc1sc(C(=O)c2c[nH]c3ccccc23)nc1C(=O)OC` [Compound I-84, Methyl 2-(1H-indole-3-carbonyl)-5-(methylamino)thiazole-4-carboxylate]: the EC50 at AHR [1] (setting [5]) was less than 10 nM; on AHR [3] (setting [6]), less than 0.01 µM.

Source of the values: patent publication US20210300912A1 (Ikena Oncology, Inc., priority 2019, published 2021).
